Measured values: ChEMBL document CHEMBL1201862, “PubChem BioAssay data set” (2004)
Where “and” joins values, the source holds several entries; their conditions need not be identical. Identical values can stand only once. Calls of active or inactive are those of the source.

Columns and labels:
[1] = target: T1, Tyrosine-protein phosphatase non-receptor type 22 (Homo sapiens, UniProt Q9Y2R2); assay: SAR LYP1 Fluorescent Assay using OMFP substrate for In Vitro dose response studies - Set 3. [Related pubchem assays (depositor defined):AID1779, AID1784, AID2140, AID2686]; assay type: functional
T1 sequence (Q9Y2R2 whole entry): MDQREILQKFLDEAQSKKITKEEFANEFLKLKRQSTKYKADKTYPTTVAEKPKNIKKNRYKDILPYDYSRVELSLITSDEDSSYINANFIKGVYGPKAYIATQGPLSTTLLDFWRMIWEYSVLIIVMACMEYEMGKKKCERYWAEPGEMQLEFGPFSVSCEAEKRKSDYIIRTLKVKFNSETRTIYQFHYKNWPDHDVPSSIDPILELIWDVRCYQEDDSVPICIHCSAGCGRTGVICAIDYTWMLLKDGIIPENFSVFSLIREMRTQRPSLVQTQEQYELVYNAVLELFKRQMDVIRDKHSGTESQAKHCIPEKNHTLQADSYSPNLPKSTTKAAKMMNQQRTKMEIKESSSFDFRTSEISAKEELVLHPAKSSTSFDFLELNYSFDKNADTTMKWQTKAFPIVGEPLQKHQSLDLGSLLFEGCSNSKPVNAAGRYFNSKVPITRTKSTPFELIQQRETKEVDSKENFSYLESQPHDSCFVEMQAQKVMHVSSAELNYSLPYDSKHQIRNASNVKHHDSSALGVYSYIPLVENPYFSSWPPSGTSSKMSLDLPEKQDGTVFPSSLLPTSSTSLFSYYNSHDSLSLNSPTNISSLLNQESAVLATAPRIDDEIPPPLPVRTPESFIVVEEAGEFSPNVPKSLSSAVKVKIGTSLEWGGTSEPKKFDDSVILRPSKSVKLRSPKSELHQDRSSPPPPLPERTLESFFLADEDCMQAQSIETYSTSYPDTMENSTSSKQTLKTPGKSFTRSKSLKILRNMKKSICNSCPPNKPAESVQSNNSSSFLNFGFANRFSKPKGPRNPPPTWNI

[2] = target: T1, Tyrosine-protein phosphatase non-receptor type 22; assay: inhibition of lymphoid tyrosine phosphatase LYP – biochemical, pCAP fluorogenic substrate, fluorescence, set 3, SAR follow-up (AID 449727); assay type: functional
[3] = target: Tyrosine-protein phosphatase non-receptor type 12 (Homo sapiens, UniProt Q05209); assay: SAR Selectivity Analysis of small molecule inhibitors of PEST using pCAP in a fluorescence assay. [Related pubchem assays (depositor defined):AID1779, AID1784, AID2135]; assay type: functional
[4] = target: T2, Tyrosine-protein phosphatase non-receptor type 7 (Homo sapiens, UniProt P35236); assay: inhibition of hematopoietic tyrosine phosphatase HePTP – biochemical, set 2, SAR follow-up (AID 449736); assay type: functional
T2 sequence (P35236 whole entry): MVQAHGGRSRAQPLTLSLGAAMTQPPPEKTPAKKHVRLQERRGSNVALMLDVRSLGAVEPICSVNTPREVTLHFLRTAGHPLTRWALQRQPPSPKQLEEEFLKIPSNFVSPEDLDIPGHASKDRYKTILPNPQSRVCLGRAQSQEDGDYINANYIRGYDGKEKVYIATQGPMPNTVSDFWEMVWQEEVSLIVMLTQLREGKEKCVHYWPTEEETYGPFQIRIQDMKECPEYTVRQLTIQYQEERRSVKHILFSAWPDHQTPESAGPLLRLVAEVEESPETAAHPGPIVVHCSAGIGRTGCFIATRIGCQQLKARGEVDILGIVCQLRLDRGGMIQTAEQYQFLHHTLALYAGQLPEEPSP

[5] = target: Induced myeloid leukemia cell differentiation protein Mcl-1 (Homo sapiens, UniProt Q07820); assay type: functional
[6] = target: Large T antigen (Simian virus 40, UniProt P03070); assay type: functional, Betapolyomavirus macacae;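 note: Confirmatory-stage PubChem screen for compounds that inhibit SV40 T antigen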
[7] = compound autofluorescence in calcium buffer – biochemical, fluorescence, no RTF in test wells, artefact control for cardiac thin filament activator project, dose response (AID 504697)
[8] = target: Troponin, cardiac muscle (Homo sapiens, UniProt P19429+P45379+P63316); assay: Fluorescence-based biochemical high throughput dose response assay for activators of the calcium sensitivity of cardiac Regulated Thin Filaments (RTF). [Related pubchem assays (depositor defined):AID493008, AID493018, AID504382, AID504383]; assay type: protein-complex assay
[9] = target: T3, Endoribonuclease toxin MazF (Escherichia coli K-12, UniProt P0AE70); assay: substrate-only fluorescence increase artefacts – biochemical, single-stranded RNase substrate, counter-screen for MazEF activator project, dose response (AID 588502); assay type: functional
T3 sequence (P0AE70 whole entry): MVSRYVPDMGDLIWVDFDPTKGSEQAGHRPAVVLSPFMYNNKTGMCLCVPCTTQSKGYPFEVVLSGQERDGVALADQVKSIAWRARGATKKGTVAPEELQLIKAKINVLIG

[10] = target: T4, Intestinal-type alkaline phosphatase (Homo sapiens, UniProt P09923); assay: activation of human intestinal alkaline phosphatase – biochemical, luminescent, uHTS hits, set 2, dose response (AID 488817); assay type: functional;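 note: potency of activators that raise enzyme activity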
[11] = target: Heat shock protein HSP 90-alpha (Homo sapiens, UniProt P07900); assay type: functional, organism-based
[12] = target: T5, Exodeoxyribonuclease V (Escherichia coli (strain K12), UniProt P04993+P07648+P08394); assay: RecBCD inhibition via phage-restricted bacterial growth – absorbance, V66 E. coli, mutant T4 phage, counter-screen for AddAB inhibitor project, dose response (AID 492957); assay type: functional, cell-based, Escherichia coli str. K-12 substr. MG1655
T5 sequence (P04993 whole entry): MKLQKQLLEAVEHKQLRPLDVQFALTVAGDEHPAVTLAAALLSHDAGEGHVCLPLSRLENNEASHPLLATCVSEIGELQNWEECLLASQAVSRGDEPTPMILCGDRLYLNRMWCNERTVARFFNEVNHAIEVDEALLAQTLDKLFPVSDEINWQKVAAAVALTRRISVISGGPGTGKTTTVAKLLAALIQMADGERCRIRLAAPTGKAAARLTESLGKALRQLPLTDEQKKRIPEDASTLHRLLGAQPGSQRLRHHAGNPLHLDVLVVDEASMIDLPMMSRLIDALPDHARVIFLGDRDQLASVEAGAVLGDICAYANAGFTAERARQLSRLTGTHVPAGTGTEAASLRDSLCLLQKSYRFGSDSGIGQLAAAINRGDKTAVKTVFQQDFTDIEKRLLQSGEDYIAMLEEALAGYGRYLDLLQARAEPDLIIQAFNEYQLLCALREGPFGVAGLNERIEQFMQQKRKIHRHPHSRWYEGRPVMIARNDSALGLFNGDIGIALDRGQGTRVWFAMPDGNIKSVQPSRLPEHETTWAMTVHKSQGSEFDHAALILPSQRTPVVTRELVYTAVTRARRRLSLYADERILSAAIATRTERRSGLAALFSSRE
T5 sequence (P07648 whole entry): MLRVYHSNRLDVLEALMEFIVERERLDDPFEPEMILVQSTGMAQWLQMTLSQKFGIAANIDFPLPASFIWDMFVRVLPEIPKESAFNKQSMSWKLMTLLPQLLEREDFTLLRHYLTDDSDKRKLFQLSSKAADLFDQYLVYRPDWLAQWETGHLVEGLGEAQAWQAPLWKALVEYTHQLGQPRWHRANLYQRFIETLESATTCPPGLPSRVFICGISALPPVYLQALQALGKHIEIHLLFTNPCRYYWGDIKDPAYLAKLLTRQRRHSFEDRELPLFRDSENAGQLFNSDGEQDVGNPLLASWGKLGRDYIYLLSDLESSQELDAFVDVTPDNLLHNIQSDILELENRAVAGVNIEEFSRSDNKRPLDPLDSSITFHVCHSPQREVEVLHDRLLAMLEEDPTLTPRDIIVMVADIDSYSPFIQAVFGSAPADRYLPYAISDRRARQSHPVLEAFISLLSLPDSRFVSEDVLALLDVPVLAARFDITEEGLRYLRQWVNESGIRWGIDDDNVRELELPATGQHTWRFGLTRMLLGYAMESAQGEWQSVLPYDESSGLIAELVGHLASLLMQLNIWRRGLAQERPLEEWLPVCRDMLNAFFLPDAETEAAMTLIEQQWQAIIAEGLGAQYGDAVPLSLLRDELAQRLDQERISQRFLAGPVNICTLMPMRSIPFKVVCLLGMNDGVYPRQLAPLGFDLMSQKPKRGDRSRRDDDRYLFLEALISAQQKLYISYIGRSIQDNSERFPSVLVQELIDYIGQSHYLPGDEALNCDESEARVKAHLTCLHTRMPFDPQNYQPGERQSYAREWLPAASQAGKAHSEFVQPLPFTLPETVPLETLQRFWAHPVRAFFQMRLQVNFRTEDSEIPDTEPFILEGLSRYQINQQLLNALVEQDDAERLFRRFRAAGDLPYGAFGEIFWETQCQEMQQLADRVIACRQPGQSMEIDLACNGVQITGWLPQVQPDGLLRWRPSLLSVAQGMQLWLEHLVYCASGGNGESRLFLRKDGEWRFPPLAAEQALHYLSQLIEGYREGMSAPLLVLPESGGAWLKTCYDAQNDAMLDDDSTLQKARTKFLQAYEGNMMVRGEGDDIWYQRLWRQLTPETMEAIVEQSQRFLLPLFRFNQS
T5 sequence (P08394 whole entry): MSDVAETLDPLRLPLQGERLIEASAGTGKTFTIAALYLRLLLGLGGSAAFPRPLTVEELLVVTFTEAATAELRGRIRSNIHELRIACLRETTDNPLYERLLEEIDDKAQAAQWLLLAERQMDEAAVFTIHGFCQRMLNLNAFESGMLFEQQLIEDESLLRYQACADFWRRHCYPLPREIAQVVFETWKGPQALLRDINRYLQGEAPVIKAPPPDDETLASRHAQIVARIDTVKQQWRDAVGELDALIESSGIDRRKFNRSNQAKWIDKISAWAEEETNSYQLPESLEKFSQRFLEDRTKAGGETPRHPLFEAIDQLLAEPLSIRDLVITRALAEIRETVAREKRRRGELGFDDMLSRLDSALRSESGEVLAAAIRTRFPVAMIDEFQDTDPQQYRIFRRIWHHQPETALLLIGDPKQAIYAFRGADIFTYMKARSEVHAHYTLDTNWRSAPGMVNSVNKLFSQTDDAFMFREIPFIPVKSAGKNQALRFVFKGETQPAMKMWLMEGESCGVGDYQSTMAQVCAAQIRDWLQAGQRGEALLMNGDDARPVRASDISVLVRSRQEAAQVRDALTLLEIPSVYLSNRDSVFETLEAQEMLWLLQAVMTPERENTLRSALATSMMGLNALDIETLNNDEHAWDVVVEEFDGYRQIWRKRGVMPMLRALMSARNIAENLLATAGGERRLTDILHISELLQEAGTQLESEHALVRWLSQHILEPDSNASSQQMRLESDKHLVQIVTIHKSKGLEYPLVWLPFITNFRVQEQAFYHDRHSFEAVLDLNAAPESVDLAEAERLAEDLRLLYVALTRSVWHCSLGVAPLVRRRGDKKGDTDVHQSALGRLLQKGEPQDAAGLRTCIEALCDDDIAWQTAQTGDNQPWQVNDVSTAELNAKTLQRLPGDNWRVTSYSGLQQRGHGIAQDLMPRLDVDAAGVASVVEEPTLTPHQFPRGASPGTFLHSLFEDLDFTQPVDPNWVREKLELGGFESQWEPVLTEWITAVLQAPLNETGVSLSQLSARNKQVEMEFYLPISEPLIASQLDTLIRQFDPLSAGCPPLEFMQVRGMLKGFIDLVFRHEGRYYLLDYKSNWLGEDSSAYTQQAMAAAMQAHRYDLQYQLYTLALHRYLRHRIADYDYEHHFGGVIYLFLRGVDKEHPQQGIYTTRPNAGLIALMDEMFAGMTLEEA

[13] = target: T4, Intestinal-type alkaline phosphatase; assay: human intestinal alkaline phosphatase activators, dose response, biochemical, luminescence, uHTS hits (AID 463120); assay type: functional
[14] = Counterscreen for AddAB inhibitors: absorbance-based bacterial cell-based high throughput dose response assay for inhibitors of bacterial viability. [Related pubchem assays (depositor defined):AID435030, AID449728, AID449731, AID488942, AID488955, AID488956]; assay type: functional
[15] = target: Intestinal-type alkaline phosphatase (Mus musculus, UniProt P24822); assay: PubChem AID 488874; assay type: functional
[16] = target: T3, Endoribonuclease toxin MazF; assay: activation of MazEF endoribonuclease cleavage – biochemical, fluorescence, single-stranded RNA substrate, uHTS hits, dose response (AID 588481); assay type: functional
[17] = microbe, parasite or virus in culture; assay type: functional; details: Mycobacterium tuberculosis

Sequence of Tyrosine-protein phosphatase non-receptor type 12 (Q05209 whole entry): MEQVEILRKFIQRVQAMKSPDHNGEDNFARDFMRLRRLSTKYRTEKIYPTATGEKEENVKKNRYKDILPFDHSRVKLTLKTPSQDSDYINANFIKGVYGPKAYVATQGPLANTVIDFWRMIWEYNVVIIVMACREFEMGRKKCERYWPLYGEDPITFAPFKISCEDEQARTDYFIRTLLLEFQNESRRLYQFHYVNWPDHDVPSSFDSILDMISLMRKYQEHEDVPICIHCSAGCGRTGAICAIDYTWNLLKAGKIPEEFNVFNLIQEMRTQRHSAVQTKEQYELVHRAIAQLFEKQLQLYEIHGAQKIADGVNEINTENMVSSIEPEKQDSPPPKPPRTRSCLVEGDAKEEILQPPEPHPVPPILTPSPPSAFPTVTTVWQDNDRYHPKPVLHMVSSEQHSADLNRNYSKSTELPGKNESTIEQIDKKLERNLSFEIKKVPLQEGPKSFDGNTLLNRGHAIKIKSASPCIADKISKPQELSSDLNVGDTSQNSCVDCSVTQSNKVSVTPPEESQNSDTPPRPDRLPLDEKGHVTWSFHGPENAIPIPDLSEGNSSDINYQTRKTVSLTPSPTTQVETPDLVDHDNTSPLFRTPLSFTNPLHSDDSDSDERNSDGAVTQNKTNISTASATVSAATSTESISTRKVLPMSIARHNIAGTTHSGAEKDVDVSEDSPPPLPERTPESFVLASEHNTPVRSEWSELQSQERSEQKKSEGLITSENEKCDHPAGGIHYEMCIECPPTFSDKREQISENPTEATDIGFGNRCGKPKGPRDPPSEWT
T4 sequence (P09923 whole entry): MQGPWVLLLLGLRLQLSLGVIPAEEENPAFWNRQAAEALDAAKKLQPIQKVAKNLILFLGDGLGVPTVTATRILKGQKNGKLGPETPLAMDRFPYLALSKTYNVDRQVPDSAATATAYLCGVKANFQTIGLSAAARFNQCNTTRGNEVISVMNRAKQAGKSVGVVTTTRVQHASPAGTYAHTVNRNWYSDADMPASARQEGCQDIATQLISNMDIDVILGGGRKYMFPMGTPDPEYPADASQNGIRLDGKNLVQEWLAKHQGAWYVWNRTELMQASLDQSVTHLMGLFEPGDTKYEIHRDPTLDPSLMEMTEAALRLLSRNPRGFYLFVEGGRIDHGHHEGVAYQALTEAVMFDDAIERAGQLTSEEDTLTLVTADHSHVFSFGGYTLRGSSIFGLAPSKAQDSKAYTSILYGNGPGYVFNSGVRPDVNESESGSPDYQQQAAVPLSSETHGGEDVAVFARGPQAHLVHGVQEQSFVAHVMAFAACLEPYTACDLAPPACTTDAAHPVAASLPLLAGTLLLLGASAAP
Sequence of Large T antigen (P03070 whole entry): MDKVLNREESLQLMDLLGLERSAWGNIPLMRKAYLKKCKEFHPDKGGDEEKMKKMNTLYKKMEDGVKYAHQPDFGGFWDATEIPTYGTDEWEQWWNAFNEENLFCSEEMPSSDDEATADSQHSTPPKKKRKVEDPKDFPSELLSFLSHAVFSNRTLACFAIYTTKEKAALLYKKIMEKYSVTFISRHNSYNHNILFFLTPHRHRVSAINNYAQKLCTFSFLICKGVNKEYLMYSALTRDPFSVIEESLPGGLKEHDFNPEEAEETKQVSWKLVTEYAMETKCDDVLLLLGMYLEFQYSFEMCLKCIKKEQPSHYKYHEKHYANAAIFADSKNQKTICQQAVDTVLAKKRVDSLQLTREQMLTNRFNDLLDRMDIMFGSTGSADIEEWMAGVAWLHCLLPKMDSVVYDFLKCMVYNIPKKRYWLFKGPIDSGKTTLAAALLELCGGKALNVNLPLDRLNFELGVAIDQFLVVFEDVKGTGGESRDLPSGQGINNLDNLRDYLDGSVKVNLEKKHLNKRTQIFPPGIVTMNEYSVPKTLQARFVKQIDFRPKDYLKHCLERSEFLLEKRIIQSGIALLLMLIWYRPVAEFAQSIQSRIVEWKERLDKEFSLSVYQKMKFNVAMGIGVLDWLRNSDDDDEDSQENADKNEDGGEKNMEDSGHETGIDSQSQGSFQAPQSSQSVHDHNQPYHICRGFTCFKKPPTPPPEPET
Sequence of Intestinal-type alkaline phosphatase (Mus musculus, UniProt P24822) (P24822 whole entry): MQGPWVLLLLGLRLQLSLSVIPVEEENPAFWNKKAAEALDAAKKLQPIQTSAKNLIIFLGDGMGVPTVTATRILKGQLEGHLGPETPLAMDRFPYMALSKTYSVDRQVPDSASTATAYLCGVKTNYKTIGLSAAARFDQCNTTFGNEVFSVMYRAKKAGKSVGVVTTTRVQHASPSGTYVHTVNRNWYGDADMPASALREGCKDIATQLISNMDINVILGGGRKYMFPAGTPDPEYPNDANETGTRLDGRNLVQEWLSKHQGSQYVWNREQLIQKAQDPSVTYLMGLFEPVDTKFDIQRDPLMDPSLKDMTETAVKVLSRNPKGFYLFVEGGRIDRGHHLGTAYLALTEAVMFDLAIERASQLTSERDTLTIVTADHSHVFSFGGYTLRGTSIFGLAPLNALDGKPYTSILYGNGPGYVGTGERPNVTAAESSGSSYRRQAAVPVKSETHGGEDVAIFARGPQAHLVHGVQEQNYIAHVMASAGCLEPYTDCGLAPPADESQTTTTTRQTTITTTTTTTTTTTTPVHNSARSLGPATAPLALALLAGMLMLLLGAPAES
Sequence of Induced myeloid leukemia cell differentiation protein Mcl-1 (Q07820 whole entry): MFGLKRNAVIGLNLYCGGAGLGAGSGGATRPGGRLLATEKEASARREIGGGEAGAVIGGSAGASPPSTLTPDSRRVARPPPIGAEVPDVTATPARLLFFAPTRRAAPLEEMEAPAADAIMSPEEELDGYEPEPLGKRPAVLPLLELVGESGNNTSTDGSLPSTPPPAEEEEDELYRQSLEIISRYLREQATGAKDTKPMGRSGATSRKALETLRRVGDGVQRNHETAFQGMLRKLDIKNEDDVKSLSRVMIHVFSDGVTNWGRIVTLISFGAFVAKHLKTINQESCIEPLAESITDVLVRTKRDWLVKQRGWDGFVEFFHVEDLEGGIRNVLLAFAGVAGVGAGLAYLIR

**Q.** Which results are given for `CC(/C=C1\SC(=S)N(CCCC(=O)Nc2ccc(C(=O)O)c(O)c2)C1=O)=C\c1ccccc1`?
**A.** IC50 [1]: 49.1 µM (active) and 44.9 µM (active); IC50 [2]: 37.9 µM (active) and 40.9 µM (active); IC50 [3]: 14 µM (active) and 9.91 µM (active); IC50 [4]: 739 nM (active) and 703 nM (active); IC50 [5]: 1.56 µM (active); IC50 [6]: > 100 µM (active)

**Q.** Which results are given for `N#C/C(=C/c1ccc(-c2ccccc2)o1)c1nc(-c2cccs2)cs1`?
**A.** EC50 [7]: > 7.94 µM (active); EC50 [8]: 0.615 µM (active)

**Q.** What does the source list for `C=CCN1C(=O)/C(=N/Nc2ccccc2O)c2ccccc21`?
**A.** EC50 [9]: 46.3 µM (inactive); EC50 [10]: 0.378 µM (active); AC50 [11]: 10.9 µM (active); IC50 [12]: > 118 µM (inactive); EC50 [13]: 8.62 µM (active); IC50 [14]: 42.8 µM (inactive); IC50 [15]: 9.81 µM (active); EC50 [16]: > 99 µM (inactive); CC50 [17]: 38.1 µM (active)
